Structures are written as SMILES.

The first data set concerns acid secretion of the perfused rat stomach stimulated by pentagastrin. Briefly: Secretion-inhibiting action on perfused rat stomach (pentagastrin-stimulated acid secretion). The following applies: Rattus norvegicus, iv, anesthetized CD rats, female, dose 3 μmol/kg i.v. The data set is classed as in vivo. From the text:
Testing of the Secretion-inhibiting Action on Perfused Rat Stomach
In table A below, the influence of the compounds according to the invention after intravenous administration is shown on the acid secretion of the perfused rat stomach stimulated by pentagastrin.
The abdomen of anesthetized rats (CD rats, female, 200–250 g; 1.5 g/kg of i.m. urethane) was opened after tracheotomy by a median upper abdominal incision and a PVC catheter was fixed transorally in the esophagus and a further one via the pylorus such that the ends of the tubing just still projected into the gastric lumen. The catheter leading from the pylorus led outwards via a side opening in the right abdominal wall.
After thorough rinsing (about 50–100 ml), a continuous flow of warm physiological NaCl solution (0.5 ml/min, pH 6.8–6.9; Braun-Unita I) was continuously passed through the stomach at 37° C. The pH in the effluent, in each case collected at an interval of 15 minutes, was determined (pH meter 632, glass electrode EA 147; φ 5 mm, Metrohm) and the secreted HCl was determined by titration with a freshly prepared 0.01N NaOH solution to pH 7 (Dosimat 665 Metrohm).
Gastric secretion was stimulated by continuous infusion of 1 μg/kg (=1.65 ml/h) of i.v. pentagastrin (left femoral vein) about 30 min after the end of the operation (i.e. after determination of 2 preliminary fractions). The substances to be tested were administered intravenously in 1 ml/kg of fluid volume 60 min after the start of the pentagastrin continuous infusion.
The body temperature of the animals was kept at a constant 37.8–38° C. by means of infrared irradiation and heating pads (automatic, step-free control via a rectal temperature sensor).
Molecule `COCCO[C@H]1c2ccn3c(C)c(C)nc3c2N[C@H](c2ccccc2)[C@H]1OC(C)=O` [Example 1, (7S,8R,9R)-8-Acetoxy-7-(2-methoxyethoxy)-2,3-dimethyl-9-phenyl-7,8,9,10-tetra-hydroimidazo[1,2-h][1,7]naphthyridine] gave an inhibition at 3 µmol/kg of 100%.

Take `CO[C@@H]1c2ccn3c(C)c(C)nc3c2N[C@H](c2ccccc2)[C@H]1OC(C)=O` [Example 3, (7R,8R,9R)-8-Acetoxy-7-methoxy-2,3-dimethyl-9-phenyl-7,8,9,10-tetrahydro-imidazo[1,2-h][1,7]naphthyridine]: the inhibition at 3 µmol/kg amounted to 100%.

The same data set, now with this note: anesthetized CD rats, female, dose 3 μmol/kg i.v.
`COCCO[C@@H]1c2ccn3c(C)c(C)nc3c2N[C@H](c2ccccc2)[C@H]1OC(C)=O` [Example 2, (7R,8R,9R)-8-Acetoxy-7-(2-methoxyethoxy)-2,3-dimethyl-9-phenyl-7,8,9,1,0-tetra-hydroimidazo[1,2-h][1,7]naphthyridine]: the “Inhibition of acid secretion (%)” value was found to be 100%.

Test system in a further data set: not given
Test: not given
Details: not given
Turning to `CO[C@@H]1c2ccn3c(C)c(C)nc3c2N[C@H](c2ccccc2)[C@H]1OC(C)=O` [Example 3, (7R,8R,9R)-8-Acetoxy-7-methoxy-2,3-dimethyl-9-phenyl-7,8,9,10-tetrahydro-imidazo[1,2-h][1,7]naphthyridine], the melting point is 197 to 199 °C. Still for that read-out and setting: next, `CCO[C@@H]1c2ccn3c(C)c(C)nc3c2N[C@H](c2ccccc2)[C@H]1OC(C)=O` [Example 4, (7R,8R,9R)8-Acetoxy-7-ethoxy-2,3-dimethyl-9-phenyl-7,8,9,10-tetrahydroimidazo-[1,2-h][1,7]naphthyridine]: 182 to 184 °C; `CCC(=O)O[C@@H]1[C@@H](c2ccccc2)Nc2c(ccn3c(C)c(C)nc23)[C@H]1OCCOC` [Example 5, (7R,8R,9R)-7-(2-Methoxyethoxy)-2,3-dimethyl-9-phenyl-8-propionyloxy-7,8,9,10-tetrahydroimidazo[1,2-h][1,7]naphthyridine]: 106 to 107 °C. The same measure, in the same setting: next, `COCCO[C@H]1c2ccn3c(C)c(C)nc3c2N[C@H](c2ccccc2)[C@H]1OC(=O)c1ccccc1` [Example 7, (7S,8R,9R)-8-Benzoyloxy-7-(2-methoxyethoxy)-2,3-dimethyl-9-phenyl-7,8,9,10tetrahydroimidazo[1,2-h][1,7]naphthyridine]: 78 to 80 °C; `COCCO[C@@H]1c2ccn3c(C)c(C)nc3c2N[C@H](c2ccccc2)[C@H]1OC(=O)OC` [Example 8, (7R,8R,9R)-8-Methoxycarbonyloxy-7-(2-methoxyethoxy)-2,3-dimethyl-9-phenyl-7,8,9,10-tetrahydroimidazo[1,2-h][1,7]naphthyridine]: 176 to 177 °C; `CO[C@@H]1c2ccn3c(C)c(C)nc3c2N[C@H](c2ccccc2)[C@H]1OC(=O)c1ccccc1` [Example 10, (7R,8R,9R)-8-Benzoyloxy-7-methoxy-2,3-dimethyl-9-phenyl-7,8,9,10-tetrahydro-imidazo[1,2-h][1,7]naphthyridine]: 82 to 84 °C. `CO[C@H]1c2ccn3c(C)c(C)nc3c2N[C@H](c2ccccc2)[C@H]1OC(=O)c1ccccc1` [Example 11, (7S,8R,9R)-8-Benzoyloxy-7-methoxy-2,3-dimethyl-9-phenyl-7,8,9,10-tetrahydro-imidazo[1,2-h][1,7]naphthyridine] returned a melting point of 78 to 80 °C. The same measure, in the same setting: next, `COCCO[C@@H]1c2ccn3c(C)c(C)nc3c2N[C@H](c2ccccc2)[C@H]1OC(=O)c1ccc([N+](=O)[O-])cc1` [Example 12, (7R,8R,9R)-7-(2-Methoxyethoxy)-2,3-dimethyl-8-(4-nitrobenzoyloxy)-9-phenyl-7,8,9,10-tetrahydroimidazo[1,2-h][1,7]naphthyridine]: 133 to 134 °C; `CO[C@@H]1c2ccn3c(C)c(C)nc3c2N[C@H](c2ccccc2)[C@H]1OC(=O)c1cccc([N+](=O)[O-])c1` [Example 17, (7R,8R,9R)-7-Methoxy-2,3-dimethyl-8-(3-nitrobenzoyloxy)-9-phenyl-7,8,9,10-tetra-hydroimidazo[1,2-h][1,7]naphthyridine]: 80 to 84 °C.

With `COCCO[C@H]1c2ccn3c(C)c(C)nc3c2N[C@H](c2ccccc2)[C@H]1OC(=O)c1ccc(OC)cc1` [Example 18, (7S,8R,9R)-7-(2-Methoxyethoxy)-2,3-dimethyl-8-(4-methoxybenzoyloxy)-9-phenyl-7,8,9,10-tetrahydroimidazo[1,2-h][1,7]naphthyridine], the melting point fell in the range of 82 to 83 °C.

The molecule `COCCO[C@@H]1c2ccn3c(C)c(C)nc3c2N[C@H](c2ccccc2)[C@H]1OC(=O)c1ccc(OC)cc1` [Example 19, (7R,8R,9R)-7-(2-Methoxyethoxy)-2,3-dimethyl-8-(4-methoxybenzoyloxy)-9-phenyl-7,8,9,10-tetrahydroimidazo[1,2-h][1,7]naphthyridine] gave a melting point of 150 to 151 °C. Same read-out and setting: next, `COCCO[C@@H]1c2ccn3c(C)c(C)nc3c2N[C@H](c2ccccc2)[C@H]1OC(=O)CN(C)C` [Example 20, (7R,8R,9R)-7-(2-Methoxyethoxy)-2,3-dimethyl-8-(N,N-dimethylaminomethyl-carbonyloxy)-9-phenyl-7,8,9,10-tetrahydroimidazo[1,2-h][1,7]naphthyridine]: 114 to 115 °C; `COCCO[C@H]1c2ccn3c(C)c(C)nc3c2N[C@H](c2ccccc2)[C@H]1OC(=O)CN(C)C` [Example 21, (7S,8R,9R)-7-(2-Methoxyethoxy)-2,3-dimethyl-8-(N,N-dimethylaminomethyl-carbonyloxy)-9-phenyl-7,8,9,10-tetrahydroimidazo[1,2-h][1,7]naphthyridine]: 206 to 207 °C; `CCN(CC)C(=O)O[C@@H]1[C@@H](c2ccccc2)Nc2c(ccn3c(C)c(C)nc23)[C@@H]1OCCOC` [Example 22, (7S,8R,9R)-7-(2-Methoxyethoxy)-8-(N,N-diethylaminocarbonyloxy)-2,3-dimethyl-9-phenyl-7,8,9,10-tetrahydroimidazo[1,2-h][1,7]naphthyridine]: 50 to 52 °C. `COCCO[C@@H]1c2ccn3c(C)c(C)nc3c2N[C@H](c2ccccc2)[C@H]1OC(=O)OC1CC(C)CCC1C(C)C` (stereo partly drawn) [Example 26, (7R,8R,9R)-8-[(+)-Menthyloxycarbonyloxy]-7-(2-methoxyethoxy)-2,3-dimethyl-9-phenyl-7,8,9,10-tetrahydroimidazo[1,2-h][1,7]naphthyridine] gave a melting point of 127 to 129 °C. The same measure, in the same setting: next, `COCCO[C@H]1c2ccn3c(C)c(C)nc3c2N[C@H](c2ccccc2)[C@H]1OC(=O)OC1CC(C)CCC1C(C)C` (stereo partly drawn) [Example 27, (7S,8R,9R)-8-[(+)-Menthyloxycarbonyloxy]-7-(2-methoxyethoxy)-2,3-dimethyl-9-phenyl-7,8,9,10-tetrahydroimidazo[1,2-h][1,7]naphthyridine]: 63 to 65 °C; `COCC(=O)O[C@@H]1[C@@H](c2ccccc2)Nc2c(ccn3c(C)c(C)nc23)[C@@H]1OC` [Example 40, (7S,8R,9R)-2,3-Dimethyl-7-methoxy-8-methoxyacetyloxy-9-phenyl-7,8,9,10-tetrahydroimidazo[1,2-h][1,7]naphthyridine]: 73 to 75 °C; `CCN(CC)C(=O)O[C@@H]1[C@@H](c2ccccc2)Nc2c(ccn3c(C)c(C)nc23)[C@H]1OC` [Example 41, (7R,8R,9R)8-(N,N-Diethylaminocarbonyloxy)-2,3-dimethyl-7-methoxy-9-phenyl 7,8,9,10-tetrahydroimidazo[1,2-h][1,7]naphthyridine]: 123 to 124 °C. On the same count and under the same terms, in the case of `CCN(CC)C(=O)O[C@@H]1[C@@H](c2ccccc2)Nc2c(ccn3c(C)c(C)nc23)[C@@H]1OC` [Example 42, (7S,8R,9R)8-(N,N-Diethylaminocarbonyloxy)-2,3-dimethyl-7-methoxy-9-phenyl 7,8,9,10-tetrahydroimidazo[1,2-h][1,7]naphthyridine] it was 97 to 98 °C; in that of `COC(=O)O[C@@H]1[C@@H](c2ccccc2)Nc2c(ccn3c(C)c(C)nc23)[C@H]1OC` [Example 43, (7R,8R,9R)7-Methoxy-8-methoxycarbonyloxy-2,3-dimethyl-9-phenyl 7,8,9,10-tetrahydroimidazo[1,2-h][1,7]naphthyridine], 178 to 179 °C. On the same count and under the same terms, in the case of `COC(=O)O[C@@H]1[C@@H](c2ccccc2)Nc2c(ccn3c(C)c(C)nc23)[C@@H]1OC` [Example 44, (7S,8R,9R)7-Methoxy-8-methoxycarbonyloxy-2,3-dimethyl-9-phenyl 7,8,9,10-tetrahydroimidazo[1,2-h][1,7]naphthyridine] it was 90 to 91 °C; in that of `CO[C@@H]1c2ccn3c(C)c(C)nc3c2N[C@H](c2ccccc2)[C@H]1OC=O` [Example 45, (7R,8R,9R)-2,3-Dimethyl-8-formyloxy-7-methoxy-9-phenyl-7,8,9,10-tetrahydro-imidazo[1,2-h][1,7]naphthyridine], 152 to 153 °C; in that of `CO[C@@H]1c2ccn3c(C)c(C)nc3c2N[C@H](c2ccccc2)[C@H]1OC(=O)c1ccccc1` [Example 47, (7R,8R,9R)-8-Benzoyloxy-2,3-dimethyl-7-methoxy-9-phenyl-7,8,9,10-tetrahydro-imidazo[1,2-h][1,7]naphthyridine], 92 to 93 °C.

As a reminder, the inhibition is the percentage by which the read-out fell short of the control. A lower inhibition goes with little suppression. The term melting point denotes the temperature of the solid-liquid transition.

These data come from patent US7189736B2, “Prodrugs of imidazopyridine derivatives” (Altana Pharma AG, priority 2000, dated 2007).
